Data taken from patent EP0157762B1, “NEW SUBSTITUTED PIPERIDINOGUANIDINES, PREPARATION PROCESS AND PHARMACEUTICAL COMPOSITIONS CONTAINING THEM” (BOUCHARA S.A., priority 1983, dated 1985).

Assay: Solubility (qualitative)
Assay type: physicochemical

solubilité dans les solvants organiques (organic solvents): peu soluble dans les solvants organiques
solubilité dans l'eau (water): soluble dans l'eau
SMILES: CNC(=NC(N)=O)NCC1CCN(CCCC(=O)c2ccc(F)cc2)CC1 [Exemple I]
